{
  "source": "paper PMC11676982",
  "about": "“Heterotropic Activation of Cytochrome P450 3A4 by Perillyl Alcohol” (Pharmaceutics, 2024)",
  "key": {"[1]": {"target": "T1, CYP2B6 (Homo sapiens, UniProt P20813)", "T1 sequence (P20813 1-491)": "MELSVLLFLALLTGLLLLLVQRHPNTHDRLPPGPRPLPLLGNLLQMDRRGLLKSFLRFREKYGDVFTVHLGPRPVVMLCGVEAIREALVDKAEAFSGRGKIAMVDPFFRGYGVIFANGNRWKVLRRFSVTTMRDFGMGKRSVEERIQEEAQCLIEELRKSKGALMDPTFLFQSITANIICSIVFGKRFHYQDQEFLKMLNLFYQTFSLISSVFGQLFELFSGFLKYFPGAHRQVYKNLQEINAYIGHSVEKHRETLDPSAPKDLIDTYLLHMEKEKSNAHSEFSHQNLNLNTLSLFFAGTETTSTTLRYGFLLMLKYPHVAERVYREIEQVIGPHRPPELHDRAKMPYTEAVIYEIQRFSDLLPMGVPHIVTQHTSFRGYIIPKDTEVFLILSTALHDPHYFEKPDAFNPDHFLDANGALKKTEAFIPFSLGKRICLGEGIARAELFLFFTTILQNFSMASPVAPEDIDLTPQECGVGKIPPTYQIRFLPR", "experiment": "Metabolism-dependent inhibition assay (IC50 shift) in pooled HLMs, CYP2B6", "details": "substrate bupropion; for IC50: CYP2B6, pooled HLMs, 95% CI in parentheses", "method": "The experiments for determining metabolism-dependent inhibition were conducted utilizing a non-dilution method. […] The pre-incubation was initiated by the addition of 1 mM NADPH and incubation for 30 min. Subsequently, final incubation was performed with the addition of a substrate (5 μM coumarin or 50 μM bupropion) in the presence of NADPH for 10 min; the total volume of the mixture was 200 μL. […] Mixtures were subjected to centrifugation at 3000× g for 20 min at 4 °C, and the supernatants were analyzed using LC-MS/MS. The experiment was performed using three separate samples.\nThe CYP-mediated activities in the presence of test substances were expressed as percentages of the corresponding control values."}, "[2]": {"target": "T2, CYP3A4 (Homo sapiens, UniProt P08684)", "T2 sequence (P08684 whole entry)": "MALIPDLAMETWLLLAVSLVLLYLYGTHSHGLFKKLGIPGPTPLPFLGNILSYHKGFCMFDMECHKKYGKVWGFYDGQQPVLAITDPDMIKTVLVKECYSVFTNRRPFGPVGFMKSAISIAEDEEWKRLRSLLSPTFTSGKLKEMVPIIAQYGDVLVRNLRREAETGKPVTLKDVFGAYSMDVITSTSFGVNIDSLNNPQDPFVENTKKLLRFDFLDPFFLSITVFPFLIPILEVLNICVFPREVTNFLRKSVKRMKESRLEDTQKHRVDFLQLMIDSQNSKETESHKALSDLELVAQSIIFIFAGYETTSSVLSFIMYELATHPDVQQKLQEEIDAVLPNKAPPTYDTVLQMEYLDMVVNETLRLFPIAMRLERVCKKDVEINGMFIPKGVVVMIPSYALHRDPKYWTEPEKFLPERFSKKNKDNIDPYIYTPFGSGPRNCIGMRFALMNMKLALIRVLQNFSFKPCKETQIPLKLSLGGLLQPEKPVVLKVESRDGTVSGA"}, "[3]": {"target": "T3, CYP1A2 (Homo sapiens, UniProt P05177)", "T3 sequence (P05177 1-516)": "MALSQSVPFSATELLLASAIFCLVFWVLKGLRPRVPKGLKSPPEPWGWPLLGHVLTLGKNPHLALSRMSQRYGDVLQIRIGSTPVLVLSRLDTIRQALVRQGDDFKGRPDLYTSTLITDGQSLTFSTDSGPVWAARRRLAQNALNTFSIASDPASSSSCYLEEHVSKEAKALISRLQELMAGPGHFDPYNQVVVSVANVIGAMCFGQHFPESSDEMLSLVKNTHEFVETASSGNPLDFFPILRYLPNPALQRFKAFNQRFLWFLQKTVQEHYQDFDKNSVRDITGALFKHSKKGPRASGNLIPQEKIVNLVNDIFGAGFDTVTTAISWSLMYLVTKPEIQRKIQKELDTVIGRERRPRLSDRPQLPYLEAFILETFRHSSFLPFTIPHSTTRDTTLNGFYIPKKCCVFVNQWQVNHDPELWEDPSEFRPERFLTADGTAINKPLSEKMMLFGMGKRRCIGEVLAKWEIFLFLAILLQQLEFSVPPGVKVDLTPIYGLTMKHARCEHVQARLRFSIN", "experiment": "Direct CYP inhibition assay in pooled HLMs, CYP1A2 (phenacetin)", "details": "up to 50 μM"}, "[4]": {"target": "T1, CYP2B6", "experiment": "Determination of CYP inhibition mode and Ki in pooled HLMs, CYP2B6-mediated bupropion hydroxylation", "protocol": "(§1) A 5 min pre-incubation was performed prior to initiating reactions with the addition of 1 mM NADPH. After incubation at 37 °C for 10 min, 200 μL of ice-cold acetonitrile containing 100 nM carbamazepine as an internal standard was added to terminate the reaction. The samples were agitated and centrifuged at 4 °C for 20 min at 3000× g. The supernatants were transferred to a 96-well plate for LC-MS/MS analysis. The experiment was performed using three separate samples.\n(§2) Data acquired from the evaluation of enzyme inhibition using various concentrations of substrates and test compounds were fit to different models (competitive, noncompetitive, uncompetitive, or mixed), and inhibition constant (Ki) and goodness of fit values were obtained using GraphPad Prism. The appropriate type of inhibition was selected based on statistical goodness of fit tests including Akaike’s information criterion (AICc) with correction for small sample size and the standard deviation of the residuals (Sy.x)."}, "[5]": {"target": "T4, CYP2C9 (Homo sapiens, UniProt P11712)", "T4 sequence (P11712 whole entry)": "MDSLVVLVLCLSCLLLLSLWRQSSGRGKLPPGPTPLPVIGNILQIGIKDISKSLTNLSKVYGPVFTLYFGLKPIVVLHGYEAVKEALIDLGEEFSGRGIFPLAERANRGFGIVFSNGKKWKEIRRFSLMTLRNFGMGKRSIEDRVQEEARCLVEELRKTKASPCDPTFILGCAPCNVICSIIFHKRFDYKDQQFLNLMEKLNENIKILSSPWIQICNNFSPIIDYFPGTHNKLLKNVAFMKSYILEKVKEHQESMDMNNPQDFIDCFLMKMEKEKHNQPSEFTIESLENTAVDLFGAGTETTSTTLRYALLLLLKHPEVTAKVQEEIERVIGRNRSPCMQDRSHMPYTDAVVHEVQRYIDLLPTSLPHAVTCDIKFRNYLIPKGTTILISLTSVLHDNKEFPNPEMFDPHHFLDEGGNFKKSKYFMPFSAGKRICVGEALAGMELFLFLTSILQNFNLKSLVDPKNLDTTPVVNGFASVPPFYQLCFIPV", "experiment": "Direct CYP inhibition assay in pooled HLMs, CYP2C9 (tolbutamide)"}, "[6]": {"target": "T5, CYP2A6 (Homo sapiens, UniProt P11509)", "T5 sequence (P11509 1-494)": "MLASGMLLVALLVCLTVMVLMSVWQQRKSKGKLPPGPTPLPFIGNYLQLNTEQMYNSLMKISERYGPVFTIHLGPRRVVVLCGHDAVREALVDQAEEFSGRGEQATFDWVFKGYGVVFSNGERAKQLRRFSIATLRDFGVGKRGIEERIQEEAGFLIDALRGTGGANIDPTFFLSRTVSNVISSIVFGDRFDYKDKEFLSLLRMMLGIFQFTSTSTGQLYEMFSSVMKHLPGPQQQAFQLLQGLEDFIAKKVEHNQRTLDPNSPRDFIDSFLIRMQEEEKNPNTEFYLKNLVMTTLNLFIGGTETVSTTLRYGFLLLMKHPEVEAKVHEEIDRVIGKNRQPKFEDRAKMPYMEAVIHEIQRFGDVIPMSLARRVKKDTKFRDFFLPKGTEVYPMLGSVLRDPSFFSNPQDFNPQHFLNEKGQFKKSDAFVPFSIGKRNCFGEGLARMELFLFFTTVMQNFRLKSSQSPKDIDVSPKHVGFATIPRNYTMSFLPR", "experiment": "biochemical", "protocol": "as §1, §2"}, "[7]": {"target": "T2, CYP3A4", "remark": "listed apart in the source", "protocol": "To assess the effect of POH on the kinetics of the formation of 1′-hydroxymidazolam (1′-OH-MDZ) and 4-hydroxymidazolam (4-OH-MDZ), 5 μM MDZ was incubated with POH (0–100 μM) in hHOs for 24 h at 37 °C in a CO2 incubator. Samples were incubated in 24-well culture plates, with each well containing a total volume of 0.7 mL. At 2, 4, 6, and 24 h, 70 μL of medium was sampled, and reaction termination was achieved by adding an equal volume of ice-cold acetonitrile containing 100 nM carbamazepine as an internal standard. The supernatants were analyzed using LC-MS/MS after centrifugation at 10,000× g for 10 min at 4 °C. […] Data were normalized for protein concentrations measured using the Pierce™ BCA Protein Assay Kit (Thermo Fisher Scientific, Waltham, MA, USA) following the manufacturer’s instructions. The experiment was performed using four separate samples."}, "[8]": {"target": "T1, CYP2B6", "experiment": "biochemical", "protocol": "as §1, §2"}, "[9]": {"target": "CYP2C19 (Homo sapiens, UniProt P33261)", "sequence (P33261 whole entry)": "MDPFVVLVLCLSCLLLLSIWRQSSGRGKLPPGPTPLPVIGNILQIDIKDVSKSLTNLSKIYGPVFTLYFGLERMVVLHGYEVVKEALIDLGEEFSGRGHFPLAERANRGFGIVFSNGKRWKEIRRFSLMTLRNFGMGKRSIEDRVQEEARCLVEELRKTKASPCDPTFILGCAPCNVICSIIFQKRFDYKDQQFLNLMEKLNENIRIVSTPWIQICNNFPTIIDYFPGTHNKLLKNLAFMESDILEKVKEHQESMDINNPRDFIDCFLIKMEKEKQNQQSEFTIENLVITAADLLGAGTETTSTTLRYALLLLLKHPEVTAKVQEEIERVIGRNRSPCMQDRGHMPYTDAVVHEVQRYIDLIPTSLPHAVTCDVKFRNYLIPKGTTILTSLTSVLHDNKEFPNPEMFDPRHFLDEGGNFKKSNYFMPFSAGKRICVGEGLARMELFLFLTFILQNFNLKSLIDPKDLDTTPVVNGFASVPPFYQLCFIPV", "experiment": "Direct CYP inhibition assay in pooled HLMs, CYP2C19 (S-mephenytoin)"}, "[10]": {"target": "T4, CYP2C9", "details": "microsomes, 10 min, 50 μM, pH 7.4"}},
  "note": "Like-named read-outs stand apart in the source and are kept apart here.",
  "data": [
    {"smiles": "C=C(C)[C@@H]1CC=C(CO)CC1", "note": "[(−)-POH, (−)-perillyl alcohol]", "values": [
      {"measurement": "IC50", "setting": "[1]; IC50, pre-incubation with NADPH, 30 min pre-incubation with NADPH", "result": 13.4, "unit": "µM"},
      {"measurement": "IC50", "setting": "[1]; IC50, pre-incubation without NADPH, 30 min pre-incubation without NADPH", "result": 13.7, "unit": "µM"},
      {"measurement": "IC50 fold-shift, CYP2B6", "setting": "[1]; IC50 without NADPH/IC50 with NADPH", "result": 1.02},
      {"measurement": "Formation of 1′-OH-MDZ relative to control without (−)-POH", "setting": "[2]; human, 10 min, 50 μM, pH 7.4", "result": 1.83, "unit": "fold"},
      {"measurement": "Effect on CYP3A4 (midazolam) activity, MDZ 1′-hydroxylation", "setting": "[2]; pooled HLMs, substrate midazolam, test compound 0–50 μM", "result": "Stimulation *"},
      {"measurement": "Inhibition of CYP1A2 activity", "setting": "[3]", "result": "not significantly inhibited"},
      {"measurement": "Type of inhibition, CYP2B6", "setting": "[4]; best fit by AICc and Sy.x, Dixon plots", "result": "mixed inhibition model"},
      {"measurement": "Ki, CYP2B6, uncompetitive model (not selected)", "setting": "[4]; pooled HLMs, bupropion, 95% CI in parentheses", "result": "4.54 (3.62–5.56) μM"},
      {"measurement": "IC50", "setting": "[5]", "result": "> 50", "unit": "µM"},
      {"measurement": "Ki", "setting": "[6]", "result": 6.35, "unit": "µM"},
      {"measurement": "Rate of 1′-OH-MDZ formation in hHOs", "setting": "[7]; 2.5 μM", "result": "1.86 (1.64–2.07) pmol/h/mg protein"},
      {"measurement": "Rate of 1′-OH-MDZ formation in hHOs", "setting": "[7]; 10 μM", "result": "2.04 (1.88–2.20) pmol/h/mg protein"},
      {"measurement": "Rate of 1′-OH-MDZ formation in hHOs", "setting": "[7]; 25 μM", "result": "2.34 (2.18–2.49) pmol/h/mg protein"},
      {"measurement": "Rate of 1′-OH-MDZ formation in hHOs", "setting": "[7]; 50 μM", "result": "3.21 (2.93–3.48) pmol/h/mg protein"},
      {"measurement": "Formation rate of 4-OH-MDZ in hHOs", "setting": "[7]; 100 μM", "result": "0.159 ± 0.016", "unit": "pmol/h/mg protein"},
      {"measurement": "Increase of the rate of 1′-OH-MDZ formation compared with absence of (−)-POH", "setting": "[7]; 100 μM", "result": 2.05, "unit": "fold"},
      {"measurement": "Ki", "setting": "[8]", "result": 3.78, "unit": "µM"},
      {"measurement": "IC50", "setting": "[9]", "result": "> 50", "unit": "µM"},
      {"measurement": "CYP2C9 activity, % of the control level", "setting": "[10]", "result": 64.2, "unit": "%"}
    ]}
  ]
}
